Laboratory results reported in ChEMBL document CHEMBL5113380, “Functionalized quinoxalinones as privileged structures with broad-ranging pharmacological activities” (Eur J Med Chem, 2022).
In brackets after ≈: the same amount, converted by molar mass.

Key:
[1] = target: T1, Glutamate receptor ionotropic AMPA (Homo sapiens, UniProt P42261+P42262+P42263+P48058); experiment: Displacement of [3H]AMPA from AMPA receptor (unknown origin); type: protein-complex assay
[2] = tested on: Bacillus cereus; experiment: Antibacterial activity against Bacillus cereus; type: functional
[3] = tested on: Escherichia coli; experiment: Antibacterial activity against Escherichia coli; type: functional
[4] = tested on: Staphylococcus aureus; experiment: Antibacterial activity against Staphylococcus aureus; type: functional
[5] = tested on: Aspergillus niger; experiment: Antifungal activity against Aspergillus niger; type: functional
[6] = tested on: Candida albicans; experiment: Antifungal activity against Candida albicans; type: functional
[7] = tested on: Pseudomonas aeruginosa; experiment: Antibacterial activity against Pseudomonas aeruginosa; type: functional
[8] = tested on: Trichophyton mentagrophytes; experiment: Antimicrobial activity against Trichophyton mentagrophytes; type: functional
[9] = target: Glutamate [NMDA] receptor; experiment: Displacement of [3H]DCKA from NMDA receptor (unknown origin); type: protein-complex assay, Homo sapiens
[10] = Displacement of [3H]glycine from AMPA receptor (unknown origin); type: protein-complex assay, Homo sapiens
[11] = target: Glutamate receptor ionotropic, kainate 2 (Homo sapiens, UniProt Q13002); experiment: Binding affinity to GluK2 receptor (unknown origin)
Glutamate receptor ionotropic, kainate 2, sequence (Q13002 whole entry): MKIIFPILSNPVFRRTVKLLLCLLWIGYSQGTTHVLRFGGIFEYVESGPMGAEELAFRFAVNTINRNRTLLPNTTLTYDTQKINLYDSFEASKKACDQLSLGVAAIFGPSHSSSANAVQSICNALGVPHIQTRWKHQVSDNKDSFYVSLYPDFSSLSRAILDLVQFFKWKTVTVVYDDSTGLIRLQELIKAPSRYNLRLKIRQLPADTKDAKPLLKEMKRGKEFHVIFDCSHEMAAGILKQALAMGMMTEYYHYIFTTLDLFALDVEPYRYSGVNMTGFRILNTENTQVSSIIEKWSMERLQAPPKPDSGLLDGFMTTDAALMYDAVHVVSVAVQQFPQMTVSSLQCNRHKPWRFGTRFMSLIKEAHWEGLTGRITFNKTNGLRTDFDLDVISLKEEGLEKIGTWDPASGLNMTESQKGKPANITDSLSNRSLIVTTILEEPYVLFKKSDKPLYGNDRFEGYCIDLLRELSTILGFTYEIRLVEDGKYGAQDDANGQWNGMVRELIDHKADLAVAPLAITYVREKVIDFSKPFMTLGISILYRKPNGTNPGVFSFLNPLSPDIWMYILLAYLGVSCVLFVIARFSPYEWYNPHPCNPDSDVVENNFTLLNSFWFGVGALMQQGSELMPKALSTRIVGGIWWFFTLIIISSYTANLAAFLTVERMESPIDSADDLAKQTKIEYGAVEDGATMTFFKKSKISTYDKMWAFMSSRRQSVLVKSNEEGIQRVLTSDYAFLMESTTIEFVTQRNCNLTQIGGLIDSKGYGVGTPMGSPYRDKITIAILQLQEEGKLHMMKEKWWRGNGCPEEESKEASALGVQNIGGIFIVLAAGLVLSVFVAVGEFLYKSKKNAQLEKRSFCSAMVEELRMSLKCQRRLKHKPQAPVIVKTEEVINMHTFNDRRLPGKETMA

[12] = target: Glutamate receptor ionotropic, kainate 1 (Homo sapiens, UniProt P39086); experiment: Binding affinity to GluK1 receptor (unknown origin)
Glutamate receptor ionotropic, kainate 1, sequence (P39086 whole entry): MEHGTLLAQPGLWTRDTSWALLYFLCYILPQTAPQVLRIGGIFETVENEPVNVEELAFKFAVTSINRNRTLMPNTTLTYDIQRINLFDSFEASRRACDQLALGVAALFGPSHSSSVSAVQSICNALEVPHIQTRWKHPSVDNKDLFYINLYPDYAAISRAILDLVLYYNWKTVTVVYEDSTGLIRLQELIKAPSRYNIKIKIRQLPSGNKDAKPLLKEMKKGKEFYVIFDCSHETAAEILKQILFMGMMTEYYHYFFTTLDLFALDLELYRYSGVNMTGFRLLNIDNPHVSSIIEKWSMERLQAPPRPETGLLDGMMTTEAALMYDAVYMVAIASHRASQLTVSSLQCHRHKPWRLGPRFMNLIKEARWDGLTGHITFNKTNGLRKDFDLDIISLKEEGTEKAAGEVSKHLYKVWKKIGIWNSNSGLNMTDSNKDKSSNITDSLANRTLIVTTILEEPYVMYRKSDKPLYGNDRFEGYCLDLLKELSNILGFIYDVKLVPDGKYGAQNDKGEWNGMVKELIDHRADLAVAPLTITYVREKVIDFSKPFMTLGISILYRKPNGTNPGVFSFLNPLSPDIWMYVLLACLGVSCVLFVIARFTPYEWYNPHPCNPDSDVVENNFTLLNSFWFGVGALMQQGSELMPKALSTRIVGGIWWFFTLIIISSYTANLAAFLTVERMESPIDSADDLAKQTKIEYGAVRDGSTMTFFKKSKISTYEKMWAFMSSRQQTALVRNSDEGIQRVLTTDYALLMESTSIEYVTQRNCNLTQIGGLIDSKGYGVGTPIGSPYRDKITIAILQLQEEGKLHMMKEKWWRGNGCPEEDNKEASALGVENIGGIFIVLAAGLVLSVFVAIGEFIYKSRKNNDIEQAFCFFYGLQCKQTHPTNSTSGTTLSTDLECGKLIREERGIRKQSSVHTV

[13] = target: T1, Glutamate receptor ionotropic AMPA; experiment: Binding affinity to AMPA receptor (unknown origin); type: protein-complex assay
[14] = Binding affinity to KA receptor (unknown origin); set-up: species or system Homo sapiens
[15] = target: Glutamate [NMDA] receptor; experiment: Binding affinity to NMDA receptor (unknown origin); type: protein-complex assay, Homo sapiens
[16] = Inhibition of ALR2 (unknown origin); set-up: species or system Homo sapiens
[17] = Inhibition of ALR1 (unknown origin) relative to control; set-up: concentration or dose not given beside the values; conditions: Homo sapiens; concentration not given here
[18] = Antioxidant activity assessed as DPPH radical scavenging activity; type: functional; conditions: read-out: IC50
[19] = tested on: Klebsiella pneumoniae; experiment: Antibacterial activity against Klebsiella pneumoniae; type: functional
[20] = target: T1, Glutamate receptor ionotropic AMPA; experiment: Displacement of [3H]kainic acid from AMPA receptor (unknown origin); type: protein-complex assay

Which IC50 [1] does the source give for C=Cc1c(Br)cc2nc(O)c(O)nc2c1CN(C)CC(=O)O here?
Its IC50 is 1180 nM.

Which Ki [1] does the source give for O=c1[nH]c2cc([N+](=O)[O-])c(-n3ccnc3)nc2n2cnnc12 here?
The Ki was 190 nM.

Which MBC [2] does the source give for CCCCCCn1c(=O)c2c(-c3ccccc3)nc(-c3ccc[n+](Cc4ccccc4)c3)n2c2ccccc21.[Cl-] here?
The MBC was > 500 µg/mL.

What about the MIC [2] of the same compound?
Its MIC is 6.3 µg/mL.

What about the MBC [3] of the same compound?
Its MBC is > 500 µg/mL.

And the MIC [3]?
The MIC was > 500 µg/mL.

What about the MBC [4] of the same compound?
The MBC was 50 µg/mL.

What about the MIC [4] of the same compound?
Its MIC is 0.97 µg/mL.

What about the MBC [5] of the same compound?
The MBC was > 500 µg/mL.

What about the MIC [5] of the same compound?
Its MIC is > 500 µg/mL.

And the MBC [6]?
The MBC was 500 µg/mL.

And the MIC [6]?
Its MIC is 7.8 µg/mL.

What about the MBC [7] of the same compound?
Its MBC is > 500 µg/mL.

And the MIC [7]?
Its MIC is > 500 µg/mL.

And the MBC [8]?
The MBC was > 500 µg/mL.

And the MIC [8]?
Its MIC is 500 µg/mL.

For C[C@H]1Cc2cc(Cl)cc3[nH]c(=O)c(=O)n(c23)C1CC(=O)O (stereo partly drawn), which Ki [9] is on record?
The Ki was 4.4 nM.

Which Ki [1] does the source give for O=[N+]([O-])c1cc2nc(O)c(O)nc2nc1-n1ccnc1 here?
Its Ki is 140 nM.

And the Ki [10]?
The Ki was 10000 nM.

For C[C@H]1Cc2cc(Br)cc3[nH]c(=O)c(=O)n(c23)C1CC(=O)O (stereo partly drawn), which Ki [9] is on record?
The Ki was 3.3 nM.

For O=C(O)C[C@@H]1CCc2cc(Br)cc3[nH]c(=O)c(=O)n1c23, which Ki [9] is on record?
The Ki was 2.3 nM.

With O=C(O)CNS(=O)(=O)c1ccc2nc(O)c(O)nc2c1 as the compound, how does the Ki [11] read?
The Ki was > 100000 nM.

What about the Ki [12] of the same compound?
The Ki was > 100000 nM.

What about the IC50 [13] of the same compound?
Its IC50 is > 100000 nM.

And the IC50 [14]?
The IC50 was > 100000 nM.

And the Ki [15]?
The Ki was 53000 nM.

Which MIC [7] does the source give for CCOC(=O)c1nc2cc(F)c(N3CCOCC3)cc2[nH]c1=O here?
Its MIC is 250 µg/mL (≈ 778 µM).

Which IC50 [16] does the source give for O=C(O)Cn1c(=O)c(Oc2ccc(Br)cc2F)nc2ccc(F)cc21 here?
The IC50 was 6.44 nM.

And the inhibition [17]?
Its inhibition is 58.7%.

What does the source list for CCCCCCCCC[n+]1cccc(-c2nc(-c3ccccc3)c3c(=O)n(CCCCCC)c4ccccc4n23)c1.[Br-]?
MBC [2]: 50 µg/mL; MIC [2]: 0.97 µg/mL; MBC [3]: 500 µg/mL; MIC [3]: 500 µg/mL; MBC [4]: 5 µg/mL; MIC [4]: 0.97 µg/mL; MBC [5]: > 500 µg/mL; MIC [5]: > 500 µg/mL; MBC [6]: 50 µg/mL; MIC [6]: 0.97 µg/mL; MBC [7]: > 500 µg/mL; MIC [7]: > 500 µg/mL; MBC [8]: 250 µg/mL; MIC [8]: 250 µg/mL

Which MBC [2] does the source give for CCCCCCCCCn1c(=O)c2c(-c3ccccc3)nc(-c3ccc[n+](Cc4ccccc4)c3)n2c2ccccc21.[Cl-] here?
The MBC was > 500 µg/mL.

What about the MIC [2] of the same compound?
The MIC was 12.5 µg/mL.

What about the MBC [3] of the same compound?
Its MBC is > 500 µg/mL.

What about the MIC [3] of the same compound?
The MIC was > 500 µg/mL.

And the MBC [4]?
Its MBC is 50 µg/mL.

What about the MIC [4] of the same compound?
The MIC was 1.95 µg/mL.

What about the MBC [5] of the same compound?
The MBC was > 500 µg/mL.

What about the MIC [5] of the same compound?
The MIC was > 500 µg/mL.

What about the MBC [6] of the same compound?
Its MBC is 500 µg/mL.

And the MIC [6]?
Its MIC is 3.9 µg/mL.

And the MBC [7]?
Its MBC is > 500 µg/mL.

What about the MIC [7] of the same compound?
The MIC was > 500 µg/mL.

And the MBC [8]?
The MBC was > 500 µg/mL.

And the MIC [8]?
The MIC was 500 µg/mL.

Which MIC [3] does the source give for CCOC(=O)c1nc2ccc(C(F)(F)F)cc2[nH]c1=O here?
The MIC was 125 µg/mL (≈ 437 µM).

Which IC50 [16] does the source give for O=C(O)Cn1c(=O)c(CCc2ccccc2)nc2ccccc21 here?
The IC50 was 143 nM.

And the inhibition [17]?
The inhibition was 22%.

What does the source list for O=C(O)c1ccccc1/C=C/c1ccc2[nH]c(=O)c(=O)[nH]c2c1?
Ki [11]: 2500 nM; Ki [12]: 1400 nM; IC50 [13]: 480 nM; IC50 [14]: 24000 nM; Ki [15]: > 100000 nM

For CCc1nc2ccc(C(F)(F)F)cc2[nH]c1=O, which MIC [7] is on record?
Its MIC is 125 µg/mL (≈ 516 µM).

With O=C1CSC(c2ccc([N+](=O)[O-])cc2)N1c1ccc2nc(Cc3ccc(O)cc3)c(=O)[nH]c2c1 (stereo not drawn) as the compound, how does the IC50 [18] read?
Its IC50 is 10500 nM.

For CCCCCCCCCn1c(=O)c2c(-c3ccccc3)nc(-c3ccc[n+](CCCCCCCCC)c3)n2c2ccccc21.[I-], which MBC [2] is on record?
Its MBC is > 500 µg/mL.

What about the MIC [2] of the same compound?
The MIC was 7.8 µg/mL.

And the MBC [3]?
The MBC was > 500 µg/mL.

And the MIC [3]?
The MIC was > 500 µg/mL.

And the MBC [4]?
Its MBC is 500 µg/mL.

And the MIC [4]?
Its MIC is 7.8 µg/mL.

What about the MBC [5] of the same compound?
Its MBC is > 500 µg/mL.

What about the MIC [5] of the same compound?
Its MIC is > 500 µg/mL.

And the MBC [6]?
The MBC was > 500 µg/mL.

And the MIC [6]?
Its MIC is > 500 µg/mL.

And the MBC [7]?
The MBC was > 500 µg/mL.

What about the MIC [7] of the same compound?
The MIC was > 500 µg/mL.

What about the MBC [8] of the same compound?
Its MBC is > 500 µg/mL.

What about the MIC [8] of the same compound?
Its MIC is > 500 µg/mL.

What does the source list for O=c1[nH]c2ccc(/C=C/CP(=O)(O)O)cc2[nH]c1=O?
Ki [11]: > 100000 nM; Ki [12]: > 100000 nM; IC50 [13]: > 100000 nM; IC50 [14]: > 100000 nM; Ki [15]: 69000 nM

For O=C(Nc1ccc(C(=O)O)cc1)OCc1cn(-c2cc3nc(C(=O)O)c(=O)[nH]c3cc2[N+](=O)[O-])cn1, which Ki [13] is on record?
Its Ki is 22 nM.

With CSCCc1nc2ccc(N3C(=O)CSC3c3ccc([N+](=O)[O-])cc3)cc2[nH]c1=O (stereo not drawn) as the compound, how does the MBC [19] read?
Its MBC is 706 µM (≈ 313 µg/mL).

What about the IC50 [18] of the same compound?
The IC50 was 29000 nM.

And the MBC [6]?
Its MBC is 353 µM.

What does the source list for CCCCCCCCCn1c(=O)c2c(-c3ccccc3)nc(-c3ccc[n+](CCCCCCCCC)c3)n2c2ccccc21.[Br-]?
MBC [2]: 500 µg/mL; MIC [2]: 6.3 µg/mL; MBC [3]: > 500 µg/mL; MIC [3]: > 500 µg/mL; MBC [4]: 50 µg/mL; MIC [4]: 1.5 µg/mL; MBC [5]: > 500 µg/mL; MIC [5]: > 500 µg/mL; MBC [6]: 500 µg/mL; MIC [6]: 50 µg/mL; MBC [7]: > 500 µg/mL; MIC [7]: > 500 µg/mL; MBC [8]: > 500 µg/mL; MIC [8]: 500 µg/mL

Which Ki [13] does the source give for O=C(Nc1ccc(C(=O)O)cc1)OCc1cn(-c2cc3nc(C(=O)O)c(O)nc3cc2C(F)(F)F)cn1 here?
The Ki was 16 nM.

Which Ki [1] does the source give for O=C(O)c1nc2c(=O)[nH]c3cc(Cl)cc(-n4cnnc4)c3n2n1 here?
The Ki was 400 nM.

What about the IC50 [20] of the same compound?
Its IC50 is 37000 nM.

And the Ki [10]?
Its Ki is 2300 nM.
